From article PMC7269032, “Chiral 4-O-acylterpineol as transdermal permeation enhancers: insights of the enhancement mechanisms of a transdermal enantioselective delivery system for flurbiprofen” (Drug Delivery, 2020)
Values after ≈ are worked out from the molar mass of the structure shown. Read-outs that look alike come from different tables or passages of the source.

Columns and labels:
[1] = In vitro permeation experiment of FP drug-in-adhesive patches in two-chamber diffusion cells; format: in vitro ADME, rabbit
From the text: Male, Japanese big-eared rabbits weighting 2.5–3.0 kg were purchased from the animal experimental center of North China University of Science and Technology. The experimental process was in accordance with the ‘Ethical Guide for Laboratory Animal Investigation’ and was approved by the Animal Experimental Center Committee of North China University of Science and Technology. All efforts were made to minimize animal suffering and to limit the number of animals used.
The hair of back skin was removed by clipper and electrical shaver carefully when the rabbits were anesthetized with ether. Full thickness of back skin was excised after the rabbit was sacrificed by injecting air into the ear veins, and the subcutaneous fat tissue was carefully removed using the surgical scissor and scalpel. The integrity of the skin was confirmed by microscopic observation method. The treated rabbit skin was cut into a size of 1.5 cm × 1.5 cm and stored at –80 °C until use. Before use, it needed to be immersed in physiological saline for 20 min to thaw.
Drug-in-adhesive patch (drug loading of 5% by adhesive) was prepared by using solvent evaporation method. An appropriate amount of FP was dissolved in a suitable amount of ethyl acetate, which was later added to the adhesive and mixed thoroughly with a mechanical stirrer. The resulting solution was coated onto release liner (Scotch Pak® 9744, 3M, USA) by using lab coating unit (6025, BLD Instruments Co. Ltd., Guangdong, China). The coated laminate was dried at 50 °C for 15 min. After the solvent had been removed, it was covered with backing laminate (Scotch Pak® 9732, 3M).
Modified two-chamber diffusion cells with an effective diffusion area of 0.95 cm^2 were employed in the in vitro permeation experiment. The cells were kept at 32 °C by the circulated water bath and stirred with magnetic bars at 400 rpm. The dermis side of the skin was attached to one-half of the side-by-side diffusion cells, the FP patch was pressed on the skin with the adhesive side facing the SC, and pH 7.4 PBS was used as the receptor medium. At predetermined time points (2, 4, 6, 8, 10, 12 and 24 h), the receptor solution of 2.0 mL was withdrawn and equal volume PBS was added to maintain a constant volume of receptor solution.
The cumulative amount of each drug permeating per unit area (Q) versus time was plotted. Q24h=(3.5Ci+2.0∑i=1n−1Ci−1)/A
Q was the cumulative skin permeation amount. Ci was the concentration in the receiver compartment at time i, A was the effective diffusion area of diffusion.
The steady-state flux (Js, µg/cm^2/h) was calculated from the slope of linear region of the plot. The lag-time was determined by extrapolating the linear portion of the curve to the abscissa. Js=dQr/Adt
Enhancement ratio (ER) was used to evaluate the activity of the enhancers, which is the ratio of Q24h with enhancer to Q24h without enhancer. ER=Q24h(with enhancer)/Q24h(without enhancer)

[2] = Determination of drug solubility; format: physicochemical; conditions: pure water, 25 °C; for solubility: 48 h
Procedure: The excess SR-FP or its single enantiomer (0.01 g) were sealed to 10 mL of pure water at 25 °C in glass vials and waved for 48 h in constant temperature air bath oscillator […]. Finally, the contents were passed through the 0.45 μm microporous membrane and centrifuged at 10,000 rpm for 5 min, then aliquots for the supernatant saturated solution were diluted and analyzed by HPLC. The experiments were performed in triplicate.

[3] = Determination of drug oil-water partition coefficient (log P); format: physicochemical; conditions: n-octanol/water, 25 °C
Procedure: The same volume of water and n-octanol were mixed and shaken for 24 h at 25 °C, then the equal of water saturated n-octanol solution and n-octanol saturated aqueous solution through liquid-separation were obtained. The SR-FP or its single enantiomer (0.001 g) were added in the saturated solution, which were mixed to the ratio of 1:4, then shook for 24–48 h followed by stand for 24 h. (The shakings were in constant temperature air bath oscillator at 25 °C). Afterwards, the HPLC method was utilized to detect the concentration of the substance in the oil phase and the water phase.

[4] = In vivo pharmacokinetic study, intravenous administration; set-up: species or system rabbit; conditions: rabbits, IV of 4.8 mg/kg SR-FP, enantiomer measured in plasma
Procedure: A certain amount of FP was dissolved in a mixed solution of sterile water and Tween-80 at 2.0 mg/mL. The fresh intravenous solution was prepared just before intravenous administration.
Six male rabbits weighing 2.5 kg were selected for IV. A capacity of 4.8 mg/kg FP (0.2 g FP was dissolved in a mixed solution of pure water and Tween80) was administered to the one ear vein of rabbit, the other ear vein of rabbit was phlebotomized about 0.5 mL at 5, 10, 15, 30 min and 1, 2, 3, 4, 6, 8, 10, 12 h. The blood samples were centrifuged at 4000 rpm for 10 min and kept at –80 °C.
(§1) After being thawed and equilibrated to room temperature, an aliquot (100 μL) of plasma sample was spiked with […] (10 μL) of 40.0 μg/mL and 400 μL methanol. The samples were vortexed for 5 min and followed by centrifugation at 16,000 rpm for 10 min at 25 °C. After centrifugation, the supernatant was transferred to a clean tube and evaporated to dryness at 40 °C under a gentle stream of nitrogen. The dried samples were reconstituted with 100 μL mobile phase, vortexed and centrifuged before analysis.
(§2) Pharmacokinetic parameters were calculated using WinNonlin® software (Pharsight Corporation, San Diego, CA, USA) based on noncompartmental model, including the maximal plasma drug concentration (Cmax), the time to reach Cmax (Tmax) which were obtained from the observed data, the area under the time–concentration curve from time 0 to time t (AUC0–t) of distribution which was calculated using the linear trapezoidal rule, the mean residence time (MRT), the plasma clearance (Cl) and the apparent volume(V). Enhancement factor (Ef) was calculated from the following equation: Ef=AUC0−t(with enhancer)/AUC0−t(without enhancer)
The concentrations of drugs in the receptor medium or rabbit plasma were determined using a validated HPLC method. The HPLC system was equipped with a Shimadzu HPLC apparatus, including an LC-20AT pump, a SIL20A syringe, an SPD-20A detector, and a CTO-20A column oven. The propylparaben was used as an internal standard, and the flow rate of chromatographic analysis was set 1.0 mL/min. For in vitro analysis of SR-FP, thermo (USA) C18 column (150 mm × 4.6 mm, 5 μm particle) maintained at 40 °C was used to elute SR-FP, the mobile phase was used methanol and 1% aqueous glacial acetic acid (60:40, v/v) and the wavelength was set at 247 nm. The HPLC conditions of S-FP and R-FP were as follows: The column was CHIRALPAK®IA (4.6 mm × 250 mml, 5 μm particle diameter) of DAOCEL (Shanghai, China). The mobile phase consisted of acetonitrile and trifluoroacetic acid (0.05%, 50:50, v/v), the wavelength was set at 254 nm. […]

[5] = In vivo pharmacokinetic study, transdermal patch administration; set-up: species or system rabbit; conditions: rabbits, patch loaded with individual enantiomer, plasma (Figure 2(F))
Procedure: Thirty-six male rabbits weighing 2.5 kg were divided into six groups, and the back skin was intact without erythema. For patch administration studies, patches without or with enhancers (120 mg/kg) were stuck to the shaved area of the rabbits. They were administered as follows: (1) control group: only the SR-FP; (2) enhancer group A: prepared SR-FP patch with 5% d-4-TER; (3) enhancer group B: prepared SR-FP patch with 5% d-4-T-dC18; (4) enhancer group C: prepared SR-FP patch with 5% l-4-T-dC18; (5) enhancer group D: prepared S-FP patch with 5% d-4-T-dC18; (6) enhancer group E: prepared R-FP patch with 5% d-4-T-dC18. In order to prevent the patches fallen off, gauze and medical tape were used to fix the patches. The blood from ear vein of rabbit was collected 0.5 mL at 0.5, 1, 2, 4, 6, 8, 12, 16, 20, 24, 26, 28, 30, 32, 36 and 48 h, and the patch was removed after 24 h, then the residual drug was wiped with physiological saline. The sample was processed by the same method as IV. All animal studies were carried out in accordance with the NIH Guidelines for the Care and Use of Laboratory Animals and were also approved by the Life Science Research Center of North China University of Science and Technology.
as §1, §2
The concentrations of drugs in the receptor medium or rabbit plasma were determined using a validated HPLC method. The HPLC system was equipped with a Shimadzu HPLC apparatus, including an LC-20AT pump, a SIL20A syringe, an SPD-20A detector, and a CTO-20A column oven. The propylparaben was used as an internal standard, and the flow rate of chromatographic analysis was set 1.0 mL/min. For in vitro analysis of SR-FP, thermo (USA) C18 column (150 mm × 4.6 mm, 5 μm particle) maintained at 40 °C was used to elute SR-FP, the mobile phase was used methanol and 1% aqueous glacial acetic acid (60:40, v/v) and the wavelength was set at 247 nm. The HPLC conditions of S-FP and R-FP were as follows: The column was CHIRALPAK®IA (4.6 mm × 250 mml, 5 μm particle diameter) of DAOCEL (Shanghai, China). The mobile phase consisted of acetonitrile and trifluoroacetic acid (0.05%, 50:50, v/v), the wavelength was set at 254 nm. For in vivo analysis of S-FP and R-FP, the mobile phase consisted of acetonitrile and trifluoroacetic acid (0.05%, 35:65, v/v), and other conditions were the same to in vitro analysis.
Absolute bioavailability (F) was calculated by the following equation: F=AUCpatch·Dosei.v./AUCi.v.·Dosepatch

cumulative transport of SR-FP at 24 h ([1]; 0% enhancer level (w/w)) | Tlag of SR-FP ([1]; permeant SR-FP, patch 5% drug (w/w), enhancer equimolar to 5% 4-TER (control: no enhancer)) | Js of SR-FP ([1]; permeant SR-FP, patch 5% drug (w/w), enhancer equimolar to 5% 4-TER (control: no enhancer), mean ± SD, n = 4) | solubility at 48 h [2] | logP ([3]; read-out: logP) | Tlag of S-FP ([1]; permeant S-FP, patch 5% drug (w/w), enhancer equimolar to 5% 4-TER (control: no enhancer)) | Js of S-FP ([1]; permeant S-FP, patch 5% drug (w/w), enhancer equimolar to 5% 4-TER (control: no enhancer), mean ± SD, n = 4) | solubility [2] | logP [3] | Cl [4] | MRT [4] | chiral inversion to the other enantiomer in vivo [5] | Tlag of R-FP ([1]; permeant R-FP, patch 5% drug (w/w), enhancer equimolar to 5% 4-TER (control: no enhancer)) | Js of R-FP ([1]; permeant R-FP, patch 5% drug (w/w), enhancer equimolar to 5% 4-TER (control: no enhancer), mean ± SD, n = 4) | SMILES
122.93 ± 8.02 μg/cm^2 | 3.31 h | 5.54 ± 0.37 μg/cm^2/h | 89.1 ± 5.48 µg/mL (≈ 365 µM) | 2.28 ± 0.04 | – | – | – | – | – | – | – | – | – | CC(C(=O)O)c1ccc(-c2ccccc2)c(F)c1 (stereo not shown) [SR-FP, Flurbiprofen]
– | – | – | – | – | 3.82 h | 2.65 ± 0.29 μg/cm^2/h | 46.39 ± 4.30 µg/mL (≈ 190 µM) | 1.86 ± 0.05 | 0.30 ± 0.02 L/h | 2.04 ± 0.23 h | had not been observed | – | – | C[C@H](C(=O)O)c1ccc(-c2ccccc2)c(F)c1 [S-FP]
– | – | – | – | – | – | – | 49.82 ± 1.31 µg/mL (≈ 204 µM) | 1.83 ± 0.09 | 0.52 ± 0.03 L/h | 1.84 ± 0.15 h | S-FP could be detected | 2.43 h | 2.43 ± 0.18 μg/cm^2/h | C[C@@H](C(=O)O)c1ccc(-c2ccccc2)c(F)c1 [R-FP]
